Publication PMC8138939 (Clinical pharmacology and therapeutics, 2020)
Where two headings read alike, the source gives them in different places. Marks after values point to notes of the source that are not given here.

Legend:
CYP3A4 [1] = biological target: T1, CYP3A4 (Homo sapiens, UniProt P08684); assay: Fluconazole inhibition of 6β-hydroxytestosterone formation, recombinant CYP3A4; type: biochemical
CYP3A5 [2] = biological target: T2, CYP3A5 (Homo sapiens, UniProt P20815); assay: Fluconazole inhibition of 6β-hydroxytestosterone formation, recombinant CYP3A5; type: biochemical
T2 sequence (P20815 whole entry): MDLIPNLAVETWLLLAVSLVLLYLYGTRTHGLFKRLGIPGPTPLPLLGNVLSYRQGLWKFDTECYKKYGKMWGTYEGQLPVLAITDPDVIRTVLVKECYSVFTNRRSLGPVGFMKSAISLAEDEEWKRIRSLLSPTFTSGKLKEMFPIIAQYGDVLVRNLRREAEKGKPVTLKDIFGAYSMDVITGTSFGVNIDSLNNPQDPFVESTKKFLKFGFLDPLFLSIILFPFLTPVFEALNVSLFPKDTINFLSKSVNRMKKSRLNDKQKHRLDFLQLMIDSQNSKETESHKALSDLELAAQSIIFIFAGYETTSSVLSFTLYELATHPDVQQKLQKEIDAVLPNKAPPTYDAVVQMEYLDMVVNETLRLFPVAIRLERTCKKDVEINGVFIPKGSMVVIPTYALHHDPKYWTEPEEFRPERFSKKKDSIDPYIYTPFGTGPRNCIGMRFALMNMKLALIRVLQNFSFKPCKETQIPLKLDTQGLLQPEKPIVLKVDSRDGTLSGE

CYP3A7 [3] = biological target: T3, CYP3A7 (Homo sapiens, UniProt P24462); assay: Fluconazole inhibition of 6β-hydroxytestosterone formation, recombinant CYP3A7; type: biochemical
T3 sequence (P24462 whole entry): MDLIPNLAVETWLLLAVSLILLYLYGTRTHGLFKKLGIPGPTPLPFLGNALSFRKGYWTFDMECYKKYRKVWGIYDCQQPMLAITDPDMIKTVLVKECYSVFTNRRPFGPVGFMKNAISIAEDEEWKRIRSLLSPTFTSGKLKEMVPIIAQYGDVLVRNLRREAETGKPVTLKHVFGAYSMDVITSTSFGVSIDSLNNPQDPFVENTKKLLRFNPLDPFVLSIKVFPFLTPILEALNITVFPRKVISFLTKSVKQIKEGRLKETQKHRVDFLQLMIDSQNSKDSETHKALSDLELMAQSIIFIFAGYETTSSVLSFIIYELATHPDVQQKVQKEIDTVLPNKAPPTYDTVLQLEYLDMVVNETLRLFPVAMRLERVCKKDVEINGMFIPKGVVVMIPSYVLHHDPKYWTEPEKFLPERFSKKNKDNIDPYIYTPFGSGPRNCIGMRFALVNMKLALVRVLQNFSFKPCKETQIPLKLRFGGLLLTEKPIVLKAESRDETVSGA

[4] = cited from earlier work; for DMS AUC Observed / Sildenafil AUC Observed: geometric mean
CYP3A5 [5] = biological target: T2, CYP3A5; settings: cited from earlier work
[6] = with vs without ritonavir; day 8; cited from earlier work
CYP3A4 [7] = biological target: T1, CYP3A4; settings: cited from earlier work
plasma protein (AAG) = settings: cited from earlier work; for fu, predominant plasma binding protein: AAG, ref [15],[16]
[8] = ref [46]; cited from earlier work
CYP3A7 [9] = biological target: T3, CYP3A7; settings: ref [18], cited from earlier work
[10] = Adult sildenafil/DMS PBPK population simulations; set-up: species or system human
phosphodiesterase type 5 = settings: ref [37], cited from earlier work
CYP3A4/5/7 = settings: read-out: KM CYP3A4/5/7 sink; remainder of sildenafil metabolites; fixed; ref [27]; cited from earlier work
[11] = cited from earlier work; for sildenafil clearance (CL): 36 term neonates, i.v. sildenafil; for Sildenafil CL Observed / Sildenafil Vss Observed: PopPK typical value scaled to 70 kg
[12] = children 1 to 17 years; low dose 10 mg in children > 20 kg; ref [24]; cited from earlier work
[13] = adults with pulmonary arterial hypertension; ref [44]; cited from earlier work
CYP2C9 = settings: DMS formation, ref [12], cited from earlier work
[14] = PopPK, cited from earlier work

T1 sequence (P08684 2-503 limits assumed): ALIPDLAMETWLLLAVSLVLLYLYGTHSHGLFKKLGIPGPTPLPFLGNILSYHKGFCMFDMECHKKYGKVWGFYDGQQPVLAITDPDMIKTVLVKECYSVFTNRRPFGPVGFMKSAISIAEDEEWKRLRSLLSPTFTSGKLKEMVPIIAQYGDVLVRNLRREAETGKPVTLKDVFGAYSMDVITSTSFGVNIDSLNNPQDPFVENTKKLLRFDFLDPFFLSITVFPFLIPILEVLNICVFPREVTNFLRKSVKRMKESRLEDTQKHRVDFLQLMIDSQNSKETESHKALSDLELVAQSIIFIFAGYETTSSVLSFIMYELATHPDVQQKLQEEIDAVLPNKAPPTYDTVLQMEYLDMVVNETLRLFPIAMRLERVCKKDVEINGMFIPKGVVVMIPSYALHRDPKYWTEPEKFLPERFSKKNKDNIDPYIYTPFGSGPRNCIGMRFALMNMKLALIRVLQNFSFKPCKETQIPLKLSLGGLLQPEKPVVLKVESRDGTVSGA

## OC(Cn1cncn1)(Cn1cncn1)c1ccc(F)cc1F [Fluconazole, fluconazole]
CYP3A4 [1]; mixed model, value (90% CI)
  Alpha: 16.6 (6.1–178)
CYP3A4 [1]; recombinant CYP3A4, testosterone probe
  Inhibition type: mixed competitive inhibitor
CYP3A4 [1]; value (90% CI)
  KI uncompetitive: 83.1 (67.4–102.9) μM
CYP3A5 [2]; KI competitive, value (90% CI)
  Ki: 70.8 µM
CYP3A5 [2]; KI global, net value of mixed model, value (90% CI), triplicates
  Ki: 182 µM
CYP3A5 [2]; mixed model, value (90% CI)
  Alpha: 2.6 (0.5–13.9)
CYP3A5 [2]; recombinant CYP3A5, testosterone probe
  Inhibition type: mixed competitive inhibitor
CYP3A5 [2]; value (90% CI)
  KI uncompetitive: 238.7 (183.2–318.9) μM
CYP3A7 [3]; mixed model, value (90% CI)
  Alpha: 13.5 (1.8–∞)
CYP3A7 [3]; recombinant CYP3A7, testosterone probe
  Inhibition type: mixed competitive inhibitor
CYP3A7 [3]; value (90% CI)
  KI uncompetitive: 389.0 (266.7–610.3) μM

## CCCc1nn(C)c2c(=O)[nH]c(-c3cc(S(=O)(=O)N4CCNCC4)ccc3OCC)nc12 [DMS, N-desmethylsildenafil]
[4]; 25 mg sildenafil single oral dose, AUC0–∞, ref [47]
  DMS AUC Observed: 147 ng·h/mL
[4]; 50 mg sildenafil single oral dose, AUC0–∞, ref [47]
  DMS AUC Observed: 328 ng·h/mL
[4]; 100 mg sildenafil single oral dose, AUC0–∞, ref [47]
  DMS AUC Observed: 776 ng·h/mL
[4]; 200 mg sildenafil single oral dose, AUC0–∞, ref [47]
  DMS AUC Observed: 1822 ng·h/mL
[4]; sildenafil 25 mg/25-minute infusion i.v., AUC0–∞, ref [13]
  DMS AUC Observed: 147 ng·h/mL
CYP3A5 [5]; CYP3A5, ref [18]
  in vitro formation kinetic intrinsic clearance (CLint) for DMS: 0.788 μL/min/pmol CYP3A
[6]
  DMS AUC0-24 Fold Change observed: 1.7
CYP3A4 [7]; CYP3A4, ref [18]
  in vitro formation kinetic intrinsic clearance (CLint) for DMS: 0.733 μL/min/pmol CYP3A
Plasma protein (AAG)
  fu, predominant plasma binding protein: 0.04 (AAG)
[8]
  Water solubility: 419 µg/mL
  pKa: 7.16
CYP3A7 [9]; CYP3A7
  in vitro formation kinetic intrinsic clearance (CLint) for DMS: 0.079 μL/min/pmol CYP3A
[10]; 25 mg sildenafil single oral dose
  DMS AUC Ratio simulated/observed: 1.01
[10]; 50 mg sildenafil single oral dose
  DMS AUC Ratio simulated/observed: 0.94
[10]; 100 mg sildenafil single oral dose
  DMS AUC Ratio simulated/observed: 0.85
[10]; 200 mg sildenafil single oral dose
  DMS AUC Ratio simulated/observed: 0.79
[10]; sildenafil 25 mg/25-minute infusion i.v.
  DMS AUC Ratio simulated/observed: 1.87

## CCCc1nn(C)c2c(=O)[nH]c(-c3cc(S(=O)(=O)N4CCN(C)CC4)ccc3OCC)nc12 [Sildenafil, sildenafil]
Phosphodiesterase type 5; at steady-state Cmax 47 ng/mL
  unbound inhibition of in vitro phosphodiesterase type 5 activity: 53%
Phosphodiesterase type 5; at steady-state Cmax 140 ng/mL
  unbound inhibition of in vitro phosphodiesterase type 5 activity: 77%
Phosphodiesterase type 5; at steady-state Cmax 373 ng/mL
  unbound inhibition of in vitro phosphodiesterase type 5 activity: 90%
[4]; 10 mg i.v. bolus, adults with pulmonary arterial hypertension, AUC0–τ (8 hours), ref [49]
  Sildenafil AUC Observed: 330 ng·h/mL
[4]; 25 mg single oral dose, healthy men, AUC0–∞, ref [47]
  Sildenafil AUC Observed: 361 ng·h/mL
[4]; 25 mg/25-minute infusion i.v., healthy adult men, AUC0–∞, ref [13]
  Sildenafil AUC Observed: 971 ng·h/mL
[4]; 50 mg single oral dose, healthy men, AUC0–∞, ref [47]
  Sildenafil AUC Observed: 738 ng·h/mL
[4]; 50 mg/50-minute infusion i.v., healthy men, AUC0–∞, ref [47]
  Sildenafil AUC Observed: 1291 ng·h/mL
[4]; 80 mg p.o. t.i.d. after 20 mg t.i.d. for 3 days, healthy men, AUC0–τ, ref [48]
  Sildenafil AUC Observed: 1720 ng·h/mL
[4]; 100 mg single oral dose, healthy men, AUC0–∞, ref [47]
  Sildenafil AUC Observed: 1685 ng·h/mL
[4]; 200 mg single oral dose, healthy men, AUC0–∞, ref [47]
  Sildenafil AUC Observed: 3755 ng·h/mL
[4]; Healthy adults, PopPK, mean (inter-individual variability), ref [50]
  Sildenafil CL Observed: 29.5 (31.2%)^d liters/hour
[4]; Healthy adults, PopPK, ref [50]
  Sildenafil Vss Observed: 107 (N/A)^d liters
[4]; Patients with PAH, 10 mg i.v. bolus, ref [49]
  Sildenafil CL Observed: 32.2 (N/A)^c liters/hour
[4]; Patients with PAH, reported as terminal phase volume (Vz), ref [49]
  Sildenafil Vss Observed: 137 (N/A)^c liters
CYP3A4/5/7
  Km: 15 µM
[11]; 7 days of age, ref [19]
  sildenafil clearance (CL): 2.58 L/h
[11]; day 1, ref [19]
  sildenafil clearance (CL): 0.84 L/h
[11]; Preterm infants, ref [21]
  Sildenafil CL Observed: 27.8 (33.3%)^b,e liters/hour
  Sildenafil Vss Observed: 144 (N/A)^b,e liters
[11]; Term neonates, ref [19]
  Sildenafil CL Observed: 24.7 (54.7%)^b,f liters/hour
  Sildenafil Vss Observed: 456 (N/A)^b,f liters
[11]; full-term neonates, ref [20]
  Vss in full-term neonates, not scaled: 22.4 L
[12]
  efficacy of the low dose: ineffective
CYP3A5 [5]; read-out: KM CYP3A5 DMS, DMS formation, ref [27]
  Km: 14.7 µM
[13]
  concentration of half-maximal effect, pulmonary vascular resistance: 17 ng/mL
  concentration that produces the maximal effect, pulmonary vascular resistance: around 100 ng/mL
CYP3A4 [7]; DMS formation, ref [27]
  Vmax CYP3A4 DMS: 1.00 pmol/min/pmol
CYP3A4 [7]; read-out: KM CYP3A4 DMS, DMS formation, ref [27]
  Km: 15 µM
CYP2C9
  Vmax CYP2C9 DMS: 78 pmol/min/mg
CYP2C9; read-out: KM CYP2C9 DMS
  Km: 27 µM
Plasma protein (AAG)
  fu, predominant plasma binding protein: 0.04 (AAG)
Plasma protein (AAG); infants, ref [20]
  protein binding of sildenafil: 93.9%
[8]
  pKa: 5.97
[14]; 11 infants 2–121 days old, 3 with fluconazole, nasogastric tube, ref [20]
  decrease in sildenafil clearance by fluconazole: 47%
[14]; 34 preterm infants, 4 with fluconazole, ref [21]
  decrease in sildenafil CL by fluconazole: 59%
CYP3A7 [9]; read-out: KM CYP3A7 DMS, DMS formation
  Km: 5.71 µM
